Source: ChEMBL document CHEMBL4270535, “Facile synthesis of vanillin-based novel bischalcones identifies one that induces apoptosis and displays synergy with Artemisinin in killing chloroquine resistant Plasmodium falciparum” (Eur J Med Chem, 2018)

Assays:
Plasmodium falciparum [1] = experiment: Antiplasmodial activity against synchronized ring stage of chloroquine-sensitive Plasmodium falciparum 3D7 infected in human erythrocytes after 48 hrs by SYBR Green 1 dye based fluorescence assay; assay type: functional, organism-based; conditions: 3D7, 48 h
Plasmodium falciparum [2] = experiment: Antiplasmodial activity against synchronized ring stage of chloroquine-resistant Plasmodium falciparum INDO infected in human erythrocytes after 48 hrs by SYBR Green 1 dye based fluorescence assay; assay type: functional, organism-based
[3] = Selectivity index, ratio of IC50 for mouse L929 cells to IC50 for synchronized ring stage of chloroquine-sensitive Plasmodium falciparum 3D7 infected in human erythrocytes; assay type: toxicity, cell-based; conditions: read-out: Ratio IC50
Plasmodium falciparum [4] = experiment: Antiplasmodial activity against synchronized ring stage of chloroquine-resistant Plasmodium falciparum Dd2 infected in human erythrocytes after 48 hrs by SYBR Green 1 dye based fluorescence assay; assay type: functional, organism-based; conditions: Dd2, 48 h
[5] = Resistance index, ratio of IC50 for synchronized ring stage of chloroquine-resistant Plasmodium falciparum Dd2 infected in human erythrocytes to IC50 for synchronized ring stage of chloroquine-sensitive Plasmodium falciparum 3D7 infected in human erythrocytes; assay type: functional
[6] = Resistance index, ratio of IC50 for synchronized ring stage of chloroquine-resistant Plasmodium falciparum INDO infected in human erythrocytes to IC50 for synchronized ring stage of chloroquine-sensitive Plasmodium falciparum 3D7 infected in human erythrocytes; assay type: functional
[7] = Selectivity index, ratio of IC50 for human HeLa cells to IC50 for synchronized ring stage of chloroquine-sensitive Plasmodium falciparum 3D7 infected in human erythrocytes; assay type: toxicity, cell-based; conditions: read-out: Ratio IC50

Compound | IC50 (Plasmodium falciparum [1]) [µM] | IC50 (Plasmodium falciparum [2]) [µM] | selectivity ratio [3] | IC50 (Plasmodium falciparum [4]) [µM] | Ratio IC50 [5] | Ratio IC50 [6] | selectivity ratio [7]
C=CCOc1c(OC)cc(/C=C/C(=O)c2cc3ccccc3oc2=O)cc1-c1cc(/C=C/C(=O)c2cc3ccccc3oc2=O)cc(OC)c1OCC=C | 18.4 | – | – | – | – | – | –
C=CCOc1c(OC)cc(/C=C/C(=O)c2ccccc2)cc1-c1cc(/C=C/C(=O)c2ccccc2)cc(OC)c1OCC=C | 7 | 3.5 | 7.1 | 2.1 | 0.3 | 0.5 | > 28.6
C=CCOc1c(OC)cc(/C=C/C(=O)c2ccc3c(c2)OCO3)cc1-c1cc(/C=C/C(=O)c2ccc3c(c2)OCO3)cc(OC)c1OCC=C | 38 | 3.8 | > 2.6 | 3.8 | 0.1 | 0.1 | > 2.6
C=CCOc1c(OC)cc(/C=C/C(=O)c2ccc(Cl)cc2)cc1-c1cc(/C=C/C(=O)c2ccc(Cl)cc2)cc(OC)c1OCC=C | > 50 | – | – | – | – | – | –
C=CCOc1c(OC)cc(/C=C/C(=O)c2cc(OC)c(OC)c(OC)c2)cc1-c1cc(/C=C/C(=O)c2cc(OC)c(OC)c(OC)c2)cc(OC)c1OCC=C | 5.5 | 2.2 | > 36.4 | 1.7 | 0.3 | 0.4 | > 36.4
C=CCOc1ccc(C(=O)/C=C/c2cc(OC)c(OCC=C)c(-c3cc(/C=C/C(=O)c4ccc(OCC=C)cc4)cc(OC)c3OCC=C)c2)cc1 | 2 | > 50 | > 100 | 16.6 | 8.3 | >25 | > 100
COc1cc(/C=C/C(=O)c2ccccc2)cc(-c2cc(/C=C/C(=O)c3ccccc3)cc(OC)c2OC)c1OC | 9.3 | 3.7 | 1.1 | 3.7 | 0.4 | 0.4 | 12.4
C=CCOc1c(OC)cc(/C=C/C(=O)c2ccc(OCCC)cc2)cc1-c1cc(/C=C/C(=O)c2ccc(OCCC)cc2)cc(OC)c1OCC=C | 1.5 | 12.2 | > 66.7 | 11.6 | 7.7 | 8.1 | > 66.7
